This note sets out measurements from ChEMBL document CHEMBL3745676, “Alkylamino derivatives of N-benzylpyrazine-2-carboxamide: synthesis and antimycobacterial evaluation” (Medchemcomm, 2015).

Molecules are shown by their SMILES. In brackets after ≈: the same amount, converted by molar mass.

What all share (assay type): functional
In assay [1] the test system is Mycobacterium tuberculosis. Description: Antimycobacterial activity against multi-drug resistant Mycobacterium tuberculosis 7357/1998 after 14 days by microplate dilution method. The following applies: 7357/1998, 336 h.
In assay [2] the test system is Mycobacterium tuberculosis. Description: Antimycobacterial activity against multi-drug resistant Mycobacterium tuberculosis 7357/1998 after 21 days by microplate dilution method. To be noted: 7357/1998, 504 h.
The test system of assay [3] is Mycobacterium tuberculosis. Description: Antimycobacterial activity against multi-drug resistant Mycobacterium tuberculosis 234/2005 after 14 days by microplate dilution method. To be noted: 234/2005, 336 h.
The subject of assay [4] is Mycobacterium tuberculosis. Nature of the assay: Antimycobacterial activity against multi-drug resistant Mycobacterium tuberculosis 234/2005 after 21 days by microplate dilution method. The following applies: 234/2005, 504 h.
In assay [5] the test system is Mycobacterium tuberculosis. Nature of the assay: Antimycobacterial activity against multi-drug resistant Mycobacterium tuberculosis 9449/2007 after 14 days by microplate dilution method. To be noted: 9449/2007, 336 h.
The subject of assay [6] is Mycobacterium tuberculosis. Nature of the assay: Antimycobacterial activity against multi-drug resistant Mycobacterium tuberculosis 9449/2007 after 21 days by microplate dilution method. To be noted: 9449/2007, 504 h.
Assay [7] has as its system Mycobacterium tuberculosis. Description: Antimycobacterial activity against multi-drug resistant Mycobacterium tuberculosis 8666/2010 after 14 days by microplate dilution method. The following applies: 8666/2010, 336 h.
The test system of assay [8] is Mycobacterium tuberculosis. Nature of the assay: Antimycobacterial activity against multi-drug resistant Mycobacterium tuberculosis 8666/2010 after 21 days by microplate dilution method. To be noted: 8666/2010, 504 h.
Assay [9] deals with Mycobacterium tuberculosis. Description: Antimycobacterial activity against multi-drug resistant Mycobacterium tuberculosis Praha 1 after 14 days by microplate dilution method. The following applies: Praha 1, 336 h.
Assay [10] deals with Mycobacterium tuberculosis. Description: Antimycobacterial activity against multi-drug resistant Mycobacterium tuberculosis Praha 1 after 21 days by microplate dilution method. The following applies: Praha 1, 504 h.
Assay [11] deals with Mycobacterium tuberculosis. Description: Antimycobacterial activity against multi-drug resistant Mycobacterium tuberculosis Praha 4 after 14 days by microplate dilution method. The following applies: Praha 4, 336 h.
Assay [12] deals with Mycobacterium tuberculosis. Description: Antimycobacterial activity against multi-drug resistant Mycobacterium tuberculosis Praha 4 after 21 days by microplate dilution method. To be noted: Praha 4, 504 h.
In assay [13] the test system is Mycobacterium tuberculosis. Nature of the assay: Antimycobacterial activity against multi-drug resistant Mycobacterium tuberculosis Praha 131 after 14 days by microplate dilution method. To be noted: Praha 131, 336 h.
The subject of assay [14] is Mycobacterium tuberculosis. Nature of the assay: Antimycobacterial activity against multi-drug resistant Mycobacterium tuberculosis Praha 131 after 21 days by microplate dilution method. To be noted: Praha 131, 504 h.

As to `CCCCCCCNc1cncc(C(=O)NCc2ccccc2)n1`, the MIC in assay [1], in assay [2], in assay [3], in [4], in assay [5] and in assay [6] was 16 µM (≈ 5.22 µg/mL) throughout. For the same compound, the MIC (usually the least concentration at which growth counts as inhibited) came to 16 µM (≈ 5.22 µg/mL) in assay [7]; 16 µM (≈ 5.22 µg/mL) in assay [8]; 16 µM (≈ 5.22 µg/mL) in assay [9]; 16 µM (≈ 5.22 µg/mL) in assay [10]; 8 µM (≈ 2.61 µg/mL) in assay [11]; 16 µM (≈ 5.22 µg/mL) in [12]. For the same compound, the figures for the MIC in assay [13] and in [14] were 8 µM (≈ 2.61 µg/mL) and 16 µM (≈ 5.22 µg/mL), respectively.

Regarding `CCCCCCCCNc1cncc(C(=O)NCc2ccccc2)n1`, the MIC in [1], in assay [2], in assay [3], in assay [4], in [5] and in assay [6] was 16 µM (≈ 5.45 µg/mL) each time. Besides, the minimal inhibitory concentration (MIC) in assay [7], in assay [8], in assay [9], in [10], in assay [11] and in assay [12] was 16 µM (≈ 5.45 µg/mL) in each case. Moreover, the MIC in [13] and in assay [14] was 16 µM (≈ 5.45 µg/mL) each time.

For the compound `CCCCCCNc1cncc(C(=O)NCc2ccccc2)n1`, the MIC in [1] was 32 µM (≈ 10 µg/mL); in [2] it was 32 µM (≈ 10 µg/mL); in assay [3], 16 µM (≈ 5 µg/mL); in [4], 32 µM (≈ 10 µg/mL); in assay [5], 32 µM (≈ 10 µg/mL); in assay [6], 32 µM (≈ 10 µg/mL). For the same compound, the MIC was found to be 16 µM (≈ 5 µg/mL) in assay [7]; 32 µM (≈ 10 µg/mL) in [8]; 16 µM (≈ 5 µg/mL) in assay [9]; 32 µM (≈ 10 µg/mL) in [10]; 32 µM (≈ 10 µg/mL) in assay [11]; 32 µM (≈ 10 µg/mL) in [12]. Also, the values for the MIC in assay [13] and in assay [14] were 16 µM (≈ 5 µg/mL) and 32 µM (≈ 10 µg/mL), respectively.

In the case of `CCCCCCNc1nccnc1C(=O)NCc1ccccc1`, the MIC in [1] was 1000 µM (≈ 312 µg/mL); in assay [2], more than 1000 µM; in assay [3], 1000 µM (≈ 312 µg/mL); in [4] it was more than 1000 µM; in assay [5] it was 1000 µM (≈ 312 µg/mL); in assay [6], 1000 µM (≈ 312 µg/mL). For the same compound, the MIC in assay [7] is 1000 µM (≈ 312 µg/mL); in assay [8] it was more than 1000 µM; in [9] it was 1000 µM (≈ 312 µg/mL); in assay [10], more than 1000 µM; in [11], 1000 µM (≈ 312 µg/mL); in assay [12], more than 1000 µM. For the same compound, the MIC is 1000 µM (≈ 312 µg/mL) in [13] and more than 1000 µM in [14].

`CCCCCCNc1cnc(C(=O)NCc2ccccc2)cn1`: the MIC was determined as 8 µM (≈ 2.5 µg/mL) in assay [1]; 8 µM (≈ 2.5 µg/mL) in [2]; 4 µM (≈ 1.25 µg/mL) in assay [3]; 8 µM (≈ 2.5 µg/mL) in [4]; 8 µM (≈ 2.5 µg/mL) in [5]; 8 µM (≈ 2.5 µg/mL) in assay [6]. Also, the MIC came to 4 µM (≈ 1.25 µg/mL) in assay [7]; 8 µM (≈ 2.5 µg/mL) in [8]; 4 µM (≈ 1.25 µg/mL) in assay [9]; 8 µM (≈ 2.5 µg/mL) in assay [10]; 8 µM (≈ 2.5 µg/mL) in assay [11]; 8 µM (≈ 2.5 µg/mL) in assay [12]. Also, the MIC in assay [13] and in [14] was 4 µM (≈ 1.25 µg/mL) in each case.

Regarding `CCCCNc1cnc(C(=O)NCc2ccccc2)cn1`, the MIC in [1] was 125 µM (≈ 35.5 µg/mL); in assay [2], 125 µM (≈ 35.5 µg/mL); in assay [3], 125 µM (≈ 35.5 µg/mL); in assay [4] it was 250 µM (≈ 71.1 µg/mL); in assay [5], 62.5 µM (≈ 17.8 µg/mL); in assay [6], 125 µM (≈ 35.5 µg/mL). Besides, the MIC in assay [7] is 125 µM (≈ 35.5 µg/mL); in assay [8] it was 250 µM (≈ 71.1 µg/mL); in assay [9], 125 µM (≈ 35.5 µg/mL); in [10], 250 µM (≈ 71.1 µg/mL); in assay [11] it was 62.5 µM (≈ 17.8 µg/mL); in assay [12] it was 125 µM (≈ 35.5 µg/mL). Moreover, the results for the minimum inhibitory concentration (MIC) in assay [13] and in assay [14] were 62.5 µM (≈ 17.8 µg/mL) and 125 µM (≈ 35.5 µg/mL), respectively.

In the case of `CCCCCCCNc1nccnc1C(=O)NCc1ccccc1`, the MIC is 1000 µM (≈ 326 µg/mL) in [1]; 1000 µM (≈ 326 µg/mL) in assay [2]; 1000 µM (≈ 326 µg/mL) in [3]; more than 1000 µM in assay [4]; more than 1000 µM in assay [5]; more than 1000 µM in assay [6]. The MIC in assay [7] is 1000 µM (≈ 326 µg/mL); in assay [8], more than 1000 µM; in assay [9] it was 1000 µM (≈ 326 µg/mL); in [10], more than 1000 µM; in assay [11], more than 1000 µM; in [12], more than 1000 µM. Also, the MIC in assay [13] was 1000 µM (≈ 326 µg/mL); in assay [14] it was more than 1000 µM.

Consider `CCCCCNc1cncc(C(=O)NCc2ccccc2)n1`, for which the MIC in assay [1] was 32 µM (≈ 9.55 µg/mL); in assay [2] it was 62.5 µM (≈ 18.6 µg/mL); in assay [3] it was 62.5 µM (≈ 18.6 µg/mL); in assay [4], 62.5 µM (≈ 18.6 µg/mL); in [5], 32 µM (≈ 9.55 µg/mL); in assay [6], 62.5 µM (≈ 18.6 µg/mL). Further, the MIC in assay [7] is 62.5 µM (≈ 18.6 µg/mL); in assay [8], 62.5 µM (≈ 18.6 µg/mL); in assay [9] it was 62.5 µM (≈ 18.6 µg/mL); in assay [10], 62.5 µM (≈ 18.6 µg/mL); in [11], 32 µM (≈ 9.55 µg/mL); in assay [12], 62.5 µM (≈ 18.6 µg/mL). For the same compound, the MIC in assay [13] amounted to 32 µM (≈ 9.55 µg/mL); in assay [14] it was 62.5 µM (≈ 18.6 µg/mL).
